Test results published in patent US7629359B2, “Use of piperidine derivatives as dermo-decontracting agents” (L'Oreal, priority 2004, dated 2009).

System: dermis equivalent model consisting of a matrix of collagen seeded with normal human fibroblasts
Assay: Dermo-decontracting effect on dermis equivalent model (spontaneous contraction of collagen gel)
Format: cell-based
Details: for activity as dermo-decontracting agent in the test of Example 1: dermis equivalent test presented in Example 1

Row | Compound | activity as dermo-decontracting agent in the test of Example 1 | reduction of the contraction of the fibroblasts compared with the control (1 μM test compound, on average over the duration of the experiment (0, 4, 8 and 24 hours), experiment repeated three times) [%]
1 | COc1ccc([C@@H]2Sc3ccccc3N(CCN(C)C)C(=O)[C@@H]2OC(C)=O)cc1 [diltiazem] | not active | –
2 | O=C(O)/C=C\C(=O)O.c1ccc(CCCCN2CCC(c3ccccc3)CC2)cc1 [maleic acid salt of 4-phenyl-1-(4-phenylbutyl)piperidine] | – | 17
3 | CCOC(=O)C1=C(C)NC(C)=C(C(=O)OC)C1c1cccc([N+](=O)[O-])c1 (stereo not shown) [nitrendipine] | not active | –
4 | CN1C(=O)CN=C(c2ccccc2)c2cc(Cl)ccc21 [diazepam] | not active | –
